ChEMBL document CHEMBL3763146 (J Med Chem, 2016)

Columns and labels:
[1] = molecular target: T1, Beta-3 adrenergic receptor (Rattus norvegicus, UniProt P26255); assay: Agonist activity at rat beta3 adrenergic receptor expressed in CHO cells assessed as accumulation of cAMP after 30 mins by TR-FRET assay in presence of 40% serum; type: functional, cell-based
Rhesus monkey [2] = assay: Unbound clearance in rhesus monkey at 0.5 mg/kg, iv or 2 mg/kg, po; type: ADME, organism-based, Macaca mulatta; settings: in vivo
[3] = Stability in rat plasma assessed as parent compound remaining at 24 hrs by LC-MS analysis; type: ADME, cell-free; settings: read-out: Stability
[4] = Fraction unbound in rat at 1 mg/kg, iv or 2 mg/kg, po; type: ADME, organism-based; settings: in vivo
[5] = molecular target: T2, Beta-3 adrenergic receptor (Homo sapiens, UniProt P13945); assay: Agonist activity at human beta3 adrenergic receptor expressed in CHO cells assessed as accumulation of cAMP after 30 mins by TR-FRET assay; type: functional, cell-based
Target sequence in this assay (P13945 whole entry): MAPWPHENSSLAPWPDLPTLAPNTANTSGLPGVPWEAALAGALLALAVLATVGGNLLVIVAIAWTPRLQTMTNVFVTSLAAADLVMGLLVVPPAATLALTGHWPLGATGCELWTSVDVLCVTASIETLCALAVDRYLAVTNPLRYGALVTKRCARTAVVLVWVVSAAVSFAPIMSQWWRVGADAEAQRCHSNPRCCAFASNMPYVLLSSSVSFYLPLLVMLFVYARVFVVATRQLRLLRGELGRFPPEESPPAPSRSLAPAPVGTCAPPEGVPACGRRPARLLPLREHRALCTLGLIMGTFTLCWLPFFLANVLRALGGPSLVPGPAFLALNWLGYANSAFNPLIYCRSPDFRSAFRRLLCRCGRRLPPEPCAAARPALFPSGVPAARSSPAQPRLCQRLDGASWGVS

Rattus norvegicus [6] = assay: Unbound clearance in rat at 1 mg/kg, iv or 2 mg/kg, po; type: ADME, organism-based; settings: in vivo
[7] = Intrinsic clearance in dog liver microsomes; type: ADME, Canis lupus familiaris; settings: read-out: CLH
[8] = molecular target: Beta-3 adrenergic receptor (Macaca mulatta) (UniProt Q28524); assay: Agonist activity at rhesus monkey beta3 adrenergic receptor expressed in CHO cells assessed as accumulation of cAMP after 30 mins by TR-FRET assay in presence of 40% serum relative to (R)-(-)-isoproterenol; type: functional, cell-based
[9] = molecular target: Beta-1 adrenergic receptor (Homo sapiens, UniProt P08588)
Description: Displacement of [125]I-cyanopindolol from recombinant human beta1 adrenergic receptor after 1 hr by scintillation counting method

Rattus norvegicus [10] = assay: Increase in detrusor muscle relaxation in iv infused Sprague-Dawley rat acetic acid-induced bladder hyperreflexia model assessed as decrease in micturition pressure measured over 30 to 45 mins; type: functional, organism-based
Canis familiaris [11] = assay: Dose normalized total AUC in dog at 2 mg/kg, po; type: ADME, organism-based, Canis lupus familiaris; settings: in vivo
[12] = molecular target: Beta-3 adrenergic receptor (Macaca mulatta) (UniProt Q28524); assay: Agonist activity at rhesus monkey beta3 adrenergic receptor expressed in CHO cells assessed as accumulation of cAMP after 30 mins by TR-FRET assay relative to (R)-(-)-isoproterenol; type: functional, cell-based
[13] = molecular target: Beta-3 adrenergic receptor (Canis lupus familiaris, UniProt O02662); assay: Agonist activity at dog beta3 adrenergic receptor expressed in CHO cells assessed as accumulation of cAMP after 30 mins by TR-FRET assay; type: functional, cell-based
[14] = Induction of phospholidosis in human HepG2 cells incubated overnight by […] in presence of fluorescent labeled phospholipid probe NBD-PE; type: cell-based; settings: read-out: A50
[15] = molecular target: Voltage-gated inwardly rectifying potassium channel KCNH2 (Homo sapiens, UniProt Q12809); assay: Binding affinity to human ERG channel
Canis familiaris [16] = assay: Unbound clearance in dog at 0.5 mg/kg, iv or 2 mg/kg, po; type: ADME, organism-based, Canis lupus familiaris; settings: in vivo
[17] = Oral bioavailability in rat at 2 mg/kg; type: ADME, organism-based; settings: in vivo
[18] = Intrinsic clearance in human liver microsomes; type: ADME; settings: read-out: CLH
Canis familiaris [19] = assay: Dose normalized fAUC in dog at 2 mg/kg, po; type: ADME, organism-based, Canis lupus familiaris; settings: in vivo
[20] = molecular target: T2, Beta-3 adrenergic receptor; assay: Agonist activity at human adrenergic beta3 receptor expressed in CHO cells assessed as accumulation of cAMP after 30 mins by TR-FRET assay in presence of 40% serum relative to (R)-(-)-isoproterenol; type: functional, cell-based
Target sequence in this assay (P13945 whole entry, looked up): as the sequence (P13945 whole entry) above

Rhesus monkey [21] = assay: Dose normalized total AUC in rhesus monkey at 2 mg/kg, po; type: ADME, organism-based, Macaca mulatta; settings: in vivo
[22] = Half life in rhesus monkey at 0.5 mg/kg, iv or 2 mg/kg, po; type: ADME, organism-based, Macaca mulatta; settings: in vivo
[23] = Half life in dog at 0.5 mg/kg, iv or 2 mg/kg, po; type: ADME, organism-based, Canis lupus familiaris; settings: in vivo
[24] = Oral bioavailability in dog at 2 mg/kg; type: ADME, organism-based, Canis lupus familiaris; settings: in vivo
[25] = molecular target: T2, Beta-3 adrenergic receptor; assay: Agonist activity at human beta3 adrenergic receptor expressed in CHO cells assessed as accumulation of cAMP after 30 mins by TR-FRET assay relative to (R)-(-)-isoproterenol; type: functional, cell-based
Target sequence in this assay (P13945 whole entry, looked up): as the sequence (P13945 whole entry) above

[26] = molecular target: Sodium-dependent serotonin transporter (Homo sapiens, UniProt P31645); assay: Inhibition of human SERT expressed in HEK293 cells preincubated for 30 mins followed by fluorescent substrate addition measured after 30 mins by plate reader analysis; type: cell-based
[27] = Distribution coefficient, logD of the compound at pH 7.4; type: physicochemical; settings: octanol/water
[28] = Stability in dog plasma assessed as parent compound remaining at 24 hrs by LC-MS analysis; type: ADME, cell-free, Canis lupus familiaris; settings: read-out: Stability
[29] = Intrinsic clearance in rat liver microsomes; type: ADME; settings: read-out: CLH
[30] = molecular target: T3, Beta-3 adrenergic receptor (Macaca mulatta, UniProt Q28524); assay: Agonist activity at rhesus monkey beta3 adrenergic receptor expressed in CHO cells assessed as accumulation of cAMP after 30 mins by TR-FRET assay in presence of 40% serum; type: functional, cell-based
[31] = Fraction unbound in dog at 0.5 mg/kg, iv or 2 mg/kg, po; type: ADME, organism-based, Canis lupus familiaris; settings: in vivo
[32] = molecular target: Beta-3 adrenergic receptor (Rattus norvegicus) (UniProt P26255); assay: Agonist activity at rat beta3 adrenergic receptor expressed in CHO cells assessed as accumulation of cAMP after 30 mins by TR-FRET assay relative to (R)-(-)-isoproterenol; type: functional, cell-based
[33] = molecular target: T3, Beta-3 adrenergic receptor; assay: Agonist activity at rhesus monkey beta3 adrenergic receptor expressed in CHO cells assessed as accumulation of cAMP after 30 mins by TR-FRET assay; type: functional, cell-based
[34] = Plasma clearance in rhesus monkey at 0.5 mg/kg, iv or 2 mg/kg, po; type: ADME, organism-based, Macaca mulatta
[35] = molecular target: Beta-3 adrenergic receptor (Rattus norvegicus) (UniProt P26255); assay: Agonist activity at rat beta3 adrenergic receptor expressed in CHO cells assessed as accumulation of cAMP after 30 mins by TR-FRET assay in presence of 40% serum relative to (R)-(-)-isoproterenol; type: functional, cell-based
[36] = Plasma clearance in rat at 1 mg/kg, iv or 2 mg/kg, po; type: ADME, organism-based
[37] = Inhibition of rat choline transporter
[38] = molecular target: T2, Beta-3 adrenergic receptor; assay: Agonist activity at human adrenergic beta3 receptor expressed in CHO cells assessed as accumulation of cAMP after 30 mins by TR-FRET assay in presence of 40% serum; type: functional, cell-based
Target sequence in this assay (P13945 whole entry): as above

Rattus norvegicus [39] = assay: Dose normalized fAUC in rat at 2 mg/kg, po; type: ADME, organism-based; settings: in vivo
[40] = Fraction unbound in rhesus monkey at 0.5 mg/kg, iv or 2 mg/kg, po; type: ADME, organism-based, Macaca mulatta; settings: in vivo
[41] = Plasma clearance in dog at 0.5 mg/kg, iv or 2 mg/kg, po; type: ADME, organism-based, Canis lupus familiaris
[42] = Stability in human plasma assessed as parent compound remaining at 24 hrs by LC-MS analysis; type: ADME, cell-free; settings: read-out: Stability
[43] = molecular target: T1, Beta-3 adrenergic receptor; assay: Agonist activity at rat beta3 adrenergic receptor expressed in CHO cells assessed as accumulation of cAMP after 30 mins by TR-FRET assay; type: functional, cell-based
Rattus norvegicus [44] = assay: Dose normalized total AUC in rat at 2 mg/kg, po; type: ADME, organism-based; settings: in vivo
[45] = Intrinsic clearance in rhesus monkey liver microsomes; type: ADME, Macaca mulatta; settings: read-out: CLH
[46] = molecular target: Beta-2 adrenergic receptor (Homo sapiens, UniProt P07550)
Description: Displacement of [125]I-cyanopindolol from human recombinant beta2 adrenergic receptor after 1 hr by scintillation counting method

[47] = Half life in rat at 1 mg/kg, iv or 2 mg/kg, po; type: ADME, organism-based; settings: in vivo
[48] = molecular target: Voltage-dependent L-type calcium channel subunit alpha-1C (Homo sapiens, UniProt Q13936); assay: Displacement of [3H]-diltiazem from human Cav1.2 channel
Rhesus monkey [49] = assay: Dose normalized fAUC in rhesus monkey at 2 mg/kg, po; type: ADME, organism-based, Macaca mulatta; settings: in vivo
[50] = molecular target: Sodium channel protein type 2 subunit alpha (Homo sapiens, UniProt Q99250); assay: Inhibition of human Nav1.2 channel expressed in Xenopus oocytes by two-intracellular microelectrode voltage clamp method; type: cell-based
[51] = Oral bioavailability in rhesus monkey at 2 mg/kg; type: ADME, organism-based, Macaca mulatta; settings: in vivo
Rattus norvegicus [52] = assay: Increase in detrusor muscle relaxation in iv infused Sprague-Dawley rat acetic acid-induced bladder hyperreflexia model assessed as increase in functional bladder capacity measured over 30 to 45 mins; type: organism-based
[53] = Stability in rhesus monkey plasma assessed as parent compound remaining at 24 hrs by LC-MS analysis; type: ADME, cell-free, Macaca mulatta; settings: read-out: Stability

T3 sequence (Q28524 whole entry): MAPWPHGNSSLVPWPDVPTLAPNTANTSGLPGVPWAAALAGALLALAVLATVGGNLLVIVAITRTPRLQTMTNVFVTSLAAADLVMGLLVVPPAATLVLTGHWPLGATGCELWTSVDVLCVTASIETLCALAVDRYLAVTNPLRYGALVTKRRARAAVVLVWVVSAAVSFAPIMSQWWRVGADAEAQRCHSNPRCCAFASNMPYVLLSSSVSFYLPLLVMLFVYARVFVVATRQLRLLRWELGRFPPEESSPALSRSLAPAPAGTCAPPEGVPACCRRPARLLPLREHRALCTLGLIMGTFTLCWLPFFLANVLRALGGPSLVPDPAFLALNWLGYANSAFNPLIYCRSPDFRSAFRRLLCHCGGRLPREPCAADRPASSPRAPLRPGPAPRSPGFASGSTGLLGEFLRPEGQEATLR
Sequence of Beta-3 adrenergic receptor (Macaca mulatta) (Q28524 whole entry): as above
Sequence of Beta-3 adrenergic receptor (Rattus norvegicus) (P26255 whole entry): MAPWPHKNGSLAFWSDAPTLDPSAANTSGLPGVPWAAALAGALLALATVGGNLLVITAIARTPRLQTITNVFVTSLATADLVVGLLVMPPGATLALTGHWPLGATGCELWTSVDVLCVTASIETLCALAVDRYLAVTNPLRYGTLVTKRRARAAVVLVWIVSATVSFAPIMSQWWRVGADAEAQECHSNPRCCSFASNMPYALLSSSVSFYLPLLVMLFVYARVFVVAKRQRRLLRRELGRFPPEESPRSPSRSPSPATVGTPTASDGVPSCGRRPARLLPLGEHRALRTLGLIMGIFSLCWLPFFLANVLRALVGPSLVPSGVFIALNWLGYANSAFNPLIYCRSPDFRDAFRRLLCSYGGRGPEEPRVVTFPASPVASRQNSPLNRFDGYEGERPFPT
T1 sequence (P26255 whole entry): as above
Sequence of Sodium channel protein type 2 subunit alpha (Q99250 whole entry, looked up): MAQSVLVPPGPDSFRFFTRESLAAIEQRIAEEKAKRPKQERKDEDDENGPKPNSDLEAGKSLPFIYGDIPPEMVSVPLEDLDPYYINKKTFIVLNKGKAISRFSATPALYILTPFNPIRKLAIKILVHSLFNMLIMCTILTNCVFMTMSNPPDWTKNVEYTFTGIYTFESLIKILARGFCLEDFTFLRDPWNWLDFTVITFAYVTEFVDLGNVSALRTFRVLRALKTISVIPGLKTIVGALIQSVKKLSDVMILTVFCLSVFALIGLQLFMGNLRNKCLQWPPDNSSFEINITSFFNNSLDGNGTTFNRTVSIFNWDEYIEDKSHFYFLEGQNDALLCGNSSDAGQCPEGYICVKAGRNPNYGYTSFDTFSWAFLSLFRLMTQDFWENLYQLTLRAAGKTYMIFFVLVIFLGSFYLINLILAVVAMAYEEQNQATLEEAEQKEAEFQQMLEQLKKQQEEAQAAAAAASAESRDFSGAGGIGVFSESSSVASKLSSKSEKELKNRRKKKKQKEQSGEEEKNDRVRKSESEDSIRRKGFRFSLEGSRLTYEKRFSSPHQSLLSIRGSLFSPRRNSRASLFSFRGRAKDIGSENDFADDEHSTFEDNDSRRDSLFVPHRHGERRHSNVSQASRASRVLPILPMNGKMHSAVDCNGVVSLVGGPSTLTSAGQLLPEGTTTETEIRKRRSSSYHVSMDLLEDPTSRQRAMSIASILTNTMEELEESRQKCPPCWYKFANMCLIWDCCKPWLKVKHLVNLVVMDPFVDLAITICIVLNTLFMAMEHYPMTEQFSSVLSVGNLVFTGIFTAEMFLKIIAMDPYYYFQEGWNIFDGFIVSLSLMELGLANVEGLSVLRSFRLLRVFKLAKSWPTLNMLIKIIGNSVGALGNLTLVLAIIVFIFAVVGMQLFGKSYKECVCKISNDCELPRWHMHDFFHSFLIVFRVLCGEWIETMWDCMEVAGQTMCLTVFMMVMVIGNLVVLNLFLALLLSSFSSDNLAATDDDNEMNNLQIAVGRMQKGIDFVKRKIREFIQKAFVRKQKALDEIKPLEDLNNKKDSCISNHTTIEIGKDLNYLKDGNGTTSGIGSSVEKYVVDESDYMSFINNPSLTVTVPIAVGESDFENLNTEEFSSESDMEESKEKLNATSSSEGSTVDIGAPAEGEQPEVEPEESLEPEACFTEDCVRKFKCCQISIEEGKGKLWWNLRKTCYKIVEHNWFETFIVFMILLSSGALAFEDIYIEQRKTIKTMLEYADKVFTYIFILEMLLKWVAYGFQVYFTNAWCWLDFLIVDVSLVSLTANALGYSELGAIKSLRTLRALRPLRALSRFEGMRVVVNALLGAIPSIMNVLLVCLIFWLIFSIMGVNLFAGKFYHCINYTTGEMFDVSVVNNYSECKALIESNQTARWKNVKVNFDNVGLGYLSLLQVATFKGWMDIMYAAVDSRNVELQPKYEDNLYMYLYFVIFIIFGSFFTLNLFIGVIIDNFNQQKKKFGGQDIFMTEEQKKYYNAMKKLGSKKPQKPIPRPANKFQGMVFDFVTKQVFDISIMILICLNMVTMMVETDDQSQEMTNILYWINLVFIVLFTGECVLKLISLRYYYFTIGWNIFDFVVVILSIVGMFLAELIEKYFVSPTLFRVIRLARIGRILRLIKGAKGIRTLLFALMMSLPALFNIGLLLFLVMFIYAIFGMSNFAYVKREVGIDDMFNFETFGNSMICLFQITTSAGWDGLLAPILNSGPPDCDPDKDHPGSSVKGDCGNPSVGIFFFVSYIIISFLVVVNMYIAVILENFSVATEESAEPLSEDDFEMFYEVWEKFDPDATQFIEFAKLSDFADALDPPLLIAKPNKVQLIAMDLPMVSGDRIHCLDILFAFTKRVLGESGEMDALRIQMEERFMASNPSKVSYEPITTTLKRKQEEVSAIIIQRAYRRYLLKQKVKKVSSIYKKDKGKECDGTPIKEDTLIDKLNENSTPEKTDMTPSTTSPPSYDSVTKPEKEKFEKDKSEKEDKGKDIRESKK
Sequence of Beta-2 adrenergic receptor (P07550 whole entry): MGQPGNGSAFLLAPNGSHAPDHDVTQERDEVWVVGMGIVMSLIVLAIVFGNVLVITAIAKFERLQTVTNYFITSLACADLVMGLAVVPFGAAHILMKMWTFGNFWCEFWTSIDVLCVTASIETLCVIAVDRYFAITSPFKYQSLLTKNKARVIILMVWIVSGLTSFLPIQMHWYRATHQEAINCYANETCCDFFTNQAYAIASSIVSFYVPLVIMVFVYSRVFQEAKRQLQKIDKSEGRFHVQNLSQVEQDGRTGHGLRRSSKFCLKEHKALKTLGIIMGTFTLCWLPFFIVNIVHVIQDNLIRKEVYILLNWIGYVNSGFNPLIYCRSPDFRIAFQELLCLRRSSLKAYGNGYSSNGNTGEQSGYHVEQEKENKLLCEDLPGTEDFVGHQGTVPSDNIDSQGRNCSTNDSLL
Sequence of Sodium-dependent serotonin transporter (P31645 whole entry): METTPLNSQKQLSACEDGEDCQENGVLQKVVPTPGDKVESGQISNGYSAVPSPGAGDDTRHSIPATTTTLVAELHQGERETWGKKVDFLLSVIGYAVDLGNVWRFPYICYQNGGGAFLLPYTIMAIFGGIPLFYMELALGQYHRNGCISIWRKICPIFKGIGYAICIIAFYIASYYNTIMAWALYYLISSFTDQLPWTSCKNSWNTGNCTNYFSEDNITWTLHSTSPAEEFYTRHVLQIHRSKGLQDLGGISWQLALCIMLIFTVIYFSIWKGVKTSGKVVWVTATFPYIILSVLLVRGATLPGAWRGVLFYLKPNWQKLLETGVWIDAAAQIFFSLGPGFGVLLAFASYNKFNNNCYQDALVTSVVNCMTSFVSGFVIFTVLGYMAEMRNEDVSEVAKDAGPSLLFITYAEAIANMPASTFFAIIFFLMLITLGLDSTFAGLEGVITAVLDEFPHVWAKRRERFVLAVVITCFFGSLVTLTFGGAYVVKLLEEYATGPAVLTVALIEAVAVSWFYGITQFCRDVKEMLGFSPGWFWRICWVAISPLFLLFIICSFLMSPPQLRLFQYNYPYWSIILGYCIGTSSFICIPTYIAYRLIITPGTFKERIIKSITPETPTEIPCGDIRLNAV
Sequence of Beta-1 adrenergic receptor (P08588 whole entry, the tested form may be a part): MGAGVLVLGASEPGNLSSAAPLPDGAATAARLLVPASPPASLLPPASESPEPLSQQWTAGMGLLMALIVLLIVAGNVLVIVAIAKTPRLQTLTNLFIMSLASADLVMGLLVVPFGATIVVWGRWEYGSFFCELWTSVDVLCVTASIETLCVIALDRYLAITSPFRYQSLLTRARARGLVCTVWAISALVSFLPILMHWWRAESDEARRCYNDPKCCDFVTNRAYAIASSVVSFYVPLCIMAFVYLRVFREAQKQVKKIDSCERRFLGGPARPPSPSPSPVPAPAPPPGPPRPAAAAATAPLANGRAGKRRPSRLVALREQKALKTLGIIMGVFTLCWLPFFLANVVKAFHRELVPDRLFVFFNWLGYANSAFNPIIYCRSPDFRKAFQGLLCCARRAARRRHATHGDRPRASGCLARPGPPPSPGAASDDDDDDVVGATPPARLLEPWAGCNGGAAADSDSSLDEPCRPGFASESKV

EC50 [1]: 245 nM | CL free (Rhesus monkey [2]): 46 mL/min/kg | remaining at 24 h [3]: 95% | fraction unbound [4]: 0.2 | EC50 [5]: 2.7 nM | CL free (Rattus norvegicus [6]): 180 mL/min/kg | CLint scaled [7]: 34 mL/min/kg | max activation [8]: 91% | IC50 [9]: > 20 µM | AUC/dose (Canis familiaris [11]): 290 nM·h/mg/kg | max activation [12]: 91% | EC50 [13]: 39 nM | AC50 [14]: 42 µM | CL free (Canis familiaris [16]): 59 mL/min/kg | bioavailability [17]: 10% | CLint scaled [18]: 10 mL/min/kg | fAUC/dose (Canis familiaris [19]): 113 nM·h/mg/kg | max activation [20]: 98% | AUC/dose (Rhesus monkey [21]): 300 nM·h/mg/kg | half-life [22]: 540 min | half-life [23]: 540 min | bioavailability [24]: 91% | max activation [25]: 92% | IC50 [26]: > 10 µM | logD [27]: 1.3 | remaining at 24 h [28]: 77% | CLint scaled [29]: 31 mL/min/kg | EC50 [30]: 12 nM | fraction unbound [31]: 0.39 | max activation [32]: 85% | EC50 [33]: 2.5 nM | clearance [34]: 33 mL/min/kg | max activation [35]: 83% | clearance [36]: 36 mL/min/kg | IC50 [37]: 2300 nM | EC50 [38]: 2.1 nM | fAUC/dose (Rattus norvegicus [39]): 20 nM·h/mg/kg | fraction unbound [40]: 0.71 | clearance [41]: 23 mL/min/kg | remaining at 24 h [42]: 100% | EC50 [43]: 531 nM | AUC/dose (Rattus norvegicus [44]): 100 nM·h/mg/kg | CLint scaled [45]: 17 mL/min/kg | IC50 [46]: > 20 µM | half-life [47]: 120 min | fAUC/dose (Rhesus monkey [49]): 213 nM·h/mg/kg | IC50 [50]: > 30 µM | bioavailability [51]: 29% | remaining at 24 h [53]: 99%
SMILES: C[C@@H](C(=O)Nc1ccc(C[C@@H]2CC[C@H]([C@H](O)c3ccccc3)N2)cc1)n1ncccc1=O
Activity (Rattus norvegicus [10]): Dose-dependent effect | IC50 [15]: > 30 µM | IC50 [48]: > 30 µM | Activity (Rattus norvegicus [52]): Dose-dependent effect
